Source: PMC9504244, “Lysophosphatidylinositol Induced Morphological Changes and Stress Fiber Formation through the GPR55-RhoA-ROCK Pathway” (International Journal of Molecular Sciences, 2022)

Biological target: GPR55 (Homo sapiens, UniProt Q9Y2T6)
Experiment: cell rounding, dose response, GPR55-expressing vs empty-vector HEK293 cells
Type: cell-based

GPR55, sequence (Q9Y2T6 whole entry): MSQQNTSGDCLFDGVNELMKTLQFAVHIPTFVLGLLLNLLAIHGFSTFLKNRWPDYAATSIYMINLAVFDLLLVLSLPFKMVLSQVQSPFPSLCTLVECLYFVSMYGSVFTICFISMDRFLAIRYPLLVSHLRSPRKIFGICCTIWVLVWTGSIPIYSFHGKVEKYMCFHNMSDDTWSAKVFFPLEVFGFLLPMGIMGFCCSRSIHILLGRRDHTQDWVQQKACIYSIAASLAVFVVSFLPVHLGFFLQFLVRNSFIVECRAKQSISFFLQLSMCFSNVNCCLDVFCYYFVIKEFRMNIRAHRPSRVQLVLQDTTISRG

Cc1c(C(=O)NN2CCCCC2)nn(-c2ccc(Cl)cc2Cl)c1-c1ccc(Cl)cc1 [SR141716A]
cell rounding, dose response, GPR55-expressing vs empty-vector HEK293 cells: cell rounding induced by AM251 and SR141716A was not observed in empty vector-transfected cells
